Laboratory results: patent US20210220356A1, “DIHYDROPYRIMIDINE DERIVATIVES AND USES THEREOF IN THE TREATMENT OF HBV INFECTION OR OF HBV-INDUCED DISEASES” (Janssen Sciences Ireland Unlimited Company, priority 2018, published 2021)
Where two headings read alike, the source gives them in different places.

How the values were obtained:
Assay type in all cases: cell-based
[1] = Cytotoxicity determination in HepG2.2.15 cells (CCK-8); conditions: human, HepG2.2.15 cells, HepG2.2.15 cells, 5,000 cells/well, 6 days of compound treatment, CCK-8 absorbance 450 nm, highest concentration 100 uM
Protocol: (§1) • HepG2.2.15 (the HepG2.2.15 cell line can be produced by transfection of the HepG2 cell line as described in Sells, Chen, and Acs 1987 (Proc. Natl. Acad. Sci. USA 84: 1005-1009), and the HepG2 cell line is available from ATCC® under number HB-8065™)
(§2) Seed the cell HepG2.2.15 cells into 96-well plate in 2% FBS culture medium at the density of 40,000 cells/well and 5,000 cells/well for HBV inhibitory activity and cytotoxicity determination, respectively. After seeding, incubate the cell plates at 37° C., 5% CO2 overnight. The next day, medium containing compounds is added to the cell to treat the cells for 6 days with medium refreshed once in the middle of the treatment. 8 dose points with 3 folds dilution of each compound were adopted and the highest concentration of the compounds is 10 uM and 100 uM for HBV inhibitory activity and cytotoxicity determination, respectively.
(§3) After 6 days of compounds treatment, add 20 μl CCK-8 reagents to each well of cytotoxicity assay plates, incubate the plate at 37° C., 5% CO2 for 2.5 h and measure the absorbance at 450 nm wavelength, at the same time read the absorbance at 630 nm wavelength as reference.
(§4) EC50 and CC50 values are calculated by the GRAPHPAD PRISM software.

HBV = HBV inhibitory activity in HepG2.2.15 cells (HBV DNA in culture medium by q-PCR); conditions: HepG2.2.15 cells, 40,000 cells/well, 6 days of compound treatment, HBV DNA in culture medium by q-PCR, highest concentration 10 uM, read-out: EC50
Protocol: as §1, §2
The HBV DAN change in the cell culture medium induced by the compounds is measured by q-PCR method. Briefly, the HBV DNA in the culture medium is extracted using QIAamp 96 DNA Blood Kit according to the manual and then quantified by q-PCR using the primers and probe in the table below.
as §4

HepG2.2.15 cells = test: Cytotoxicity determination in HepG2.2.15 cells (CCK-8); conditions: HepG2.2.15 cells, 5,000 cells/well, 6 days of compound treatment, CCK-8 absorbance 450 nm, highest concentration 100 uM
Protocol: as §1, §2, §3, §4

[2] = Hepatitis B virus, HepG2.2.15, 144 h

Structure (SMILES): CCOC(=O)C1=C(C2CCc3nn(CCC(=O)O)cc3C2)NC(c2nccs2)=NC1c1ccc(F)cc1Cl (single isomer, unassigned) [Compound 37b, 3-(5-(6-(2-Chloro-4-fluorophenyl)-5-(ethoxycarbonyl)-2-(thiazol-2-yl)-3,6-dihydropyrimidin-4-yl)-4,5,6,7-tetrahydro-2H-indazol-2-yl)propanoic acid]
- CC50 at 6 days [1]: 19.6 µM
- EC50 (HBV): 0.175 µM

Structure (SMILES): CCOC(=O)C1=C(C2CCc3nn(CC(C)(C)C(=O)O)cc3C2)NC(c2nccs2)=NC1c1ccc(F)c(F)c1Cl (single isomer, unassigned) [Compound 53a, 3-(5-(6-(2-Chloro-3,4-difluorophenyl)-5-(ethoxycarbonyl)-2-(thiazol-2-yl)-3,6-dihydropyrimidin-4-yl)-4,5,6,7-tetrahydro-2H-indazol-2-yl)-2,2-dimethylpropanoic acid]
- CC50 at 6 days [1]: 7.2 µM
- EC50 (HBV): 0.132 µM

Structure (SMILES): COC(=O)C1=C(C2CCc3nn(CC(C)(C)C(=O)O)cc3C2)NC(c2nccs2)=NC1c1ccc(F)c(F)c1Cl (centres unmarked) [Compound 84d, 3-(5-(6-(2-chloro-3,4-difluorophenyl)-5-(methoxycarbonyl)-2-(thiazol-2-yl)-3,6-dihydropyrimidin-4-yl)-4,5,6,7-tetrahydro-2H-indazol-2-yl)-2,2-dimethylpropanoic acid]
- CC50 at 6 days [1]: 16.4 µM
- EC50 (HBV; [2]): 0.0188 µM

Structure (SMILES): CCOC(=O)C1=C(C2CCc3oc(CCC(=O)O)nc3C2)NC(c2nccs2)=NC1c1ccc(F)c(F)c1Cl (single isomer, unassigned) [Compound 57c, 3-(5-(6-(2-Chloro-3,4-difluorophenyl)-5-(ethoxycarbonyl)-2-(thiazol-2-yl)-3,6-dihydropyrimidin-4-yl)-4,5,6,7-tetrahydrobenzo[d]oxazol-2-yl)propanoic acid]
- CC50 at 6 days [1]: 7.7 µM
- EC50 (HBV): 0.0125 µM

Structure (SMILES): CCOC(=O)C1=C(C2CCc3nn(CCC(=O)O)cc3C2)NC(c2nccs2)=NC1c1ccc(F)cc1Br (single isomer, unassigned) [Compound 39b, 3-(5-(6-(2-Bromo-4-fluorophenyl)-5-(ethoxycarbonyl)-2-(thiazol-2-yl)-3,6-dihydropyrimidin-4-yl)-4,5,6,7-tetrahydro-2H-indazol-2-yl)propanoic acid]
- CC50 at 6 days [1]: 13.1 µM
- EC50 (HBV): 0.165 µM

Structure (SMILES): COC(=O)C1=C(C2CCc3nc([C@H]4C[C@H](C(=O)O)C4)oc3C2)NC(c2nccs2)=NC1c1ccc(F)c(F)c1Cl (single isomer, unassigned) [Compound 72b, (trans)-3-(6-(6-(2-Chloro-3,4-difluorophenyl)-5-(methoxycarbonyl)-2-(thiazol-2-yl)-3,6-dihydropyrimidin-4-yl)-4,5,6,7-tetrahydrobenzo[d]oxazol-2-yl)cyclobutanecarboxylic acid]
- CC50 at 6 days [1]: 7 µM
- EC50 (HBV): 0.0215 µM

Structure (SMILES): COC(=O)C1=C(C2CCc3nn(CCC(=O)O)cc3C2)NC(c2nccs2)=NC1c1cccc(F)c1Cl (single isomer, unassigned) [Compound 44b, 3-(5-(6-(2-Chloro-3-fluorophenyl)-5-(methoxycarbonyl)-2-(thiazol-2-yl)-3,6-dihydropyrimidin-4-yl)-4,5,6,7-tetrahydro-2H-indazol-2-yl)propanoic acid]
- CC50 at 6 days [1]: 21 µM
- EC50 (HBV): 0.383 µM

Structure (SMILES): CCOC(=O)C1=C(C2CCc3nn(CC(C)(C)C(=O)O)cc3C2)NC(c2nccs2)=NC1c1ccc(F)c(F)c1C (centres unmarked) [Compound 92c, 3-(5-(6-(3,4-difluoro-2-methylphenyl)-5-(ethoxycarbonyl)-2-(thiazol-2-yl)-3,6-dihydropyrimidin-4-yl)-4,5,6,7-tetrahydro-2H-indazol-2-yl)-2,2-dimethylpropanoic acid]
- CC50 at 6 days [1]: 9.3 µM
- EC50 (HBV; [2]): 0.0079 µM

Structure (SMILES): CCOC(=O)C1=C(C2CCc3nn(CCC(=O)O)cc3C2)NC(c2nccs2)=NC1c1ccc(F)c(F)c1C (single isomer, unassigned) [Compound 35b, 3-(5-(6-(3,4-Difluoro-2-methylphenyl)-5-(ethoxycarbonyl)-2-(thiazol-2-yl)-3,6-dihydropyrimidin-4-yl)-4,5,6,7-tetrahydro-2H-indazol-2-yl)propanoic acid]
- CC50 at 6 days [1]: 20.7 µM
- EC50 (HBV): 0.0958 µM

Structure (SMILES): COC(=O)C1=C(C2CCc3nn([C@H]4C[C@@H](C(=O)O)C4)cc3C2)NC(c2nccs2)=NC1c1ccc(F)c(F)c1Cl (stereo partly drawn) [Compound 96d, (cis)-3-(5-(6-(2-Chloro-3,4-difluorophenyl)-5-(methoxycarbonyl)-2-(thiazol-2-yl)-3,6-dihydropyrimidin-4-yl)-4,5,6,7-tetrahydro-2H-indazol-2-yl)cyclobutanecarboxylic acid]
- CC50 at 6 days [1]: 19.3 µM
- EC50 (HBV; [2]): 0.0247 µM

Structure (SMILES): CCOC(=O)C1=C(C2CCc3nn(CCC(=O)O)cc3C2)NC(c2nccs2)=NC1c1cccc(F)c1Cl (single isomer, unassigned) [Compound 40b, 3-(5-(6-(2-Chloro-3-fluorophenyl)-5-(ethoxycarbonyl)-2-(thiazol-2-yl)-3,6-dihydropyrimidin-4-yl)-4,5,6,7-tetrahydro-2H-indazol-2-yl)propanoic acid]
- CC50 at 6 days [1]: 21.5 µM
- EC50 (HBV): 0.48 µM

Structure (SMILES): CCOC(=O)C1=C(C2Cc3cn(CCC(=O)O)nc3C(C)(C)C2)NC(c2nccs2)=NC1c1ccc(F)c(F)c1Cl (centres unmarked) [Compound 55c, 3-(5-(6-(2-chloro-3,4-difluorophenyl)-5-(ethoxycarbonyl)-2-(thiazol-2-yl)-3,6-dihydropyrimidin-4-yl)-7,7-dimethyl-4,5,6,7-tetrahydro-2H-indazol-2-yl)propanoic acid]
- CC50 (HepG2.2.15 cells): 7.1 µM
- EC50 (HBV): 0.0095 µM

Structure (SMILES): COC(=O)C1=C(C2CCc3nn(CCC(=O)O)cc3C2)NC(c2nccs2)=NC1c1ccc(F)c(F)c1Cl (single isomer, unassigned) [Compound 70d, 3-(-5-(6-(2-chloro-3,4-difluorophenyl)-5-(methoxycarbonyl)-2-(thiazol-2-yl)-3,6-dihydropyrimidin-4-yl)-4,5,6,7-tetrahydro-2H-indazol-2-yl)propanoic acid]
- CC50 (HepG2.2.15 cells): 24.3 µM
- EC50 (HBV): 0.00803 µM

Structure (SMILES): CCOC(=O)C1=C(C2CCc3oc(CCC(=O)O)nc3C2)NC(c2nccs2)=NC1c1ccc(F)c(F)c1Cl (single isomer, unassigned) [Compound 57f, 3-(5-(6-(2-Chloro-3,4-difluorophenyl)-5-(ethoxycarbonyl)-2-(thiazol-2-yl)-3,6-dihydropyrimidin-4-yl)-4,5,6,7-tetrahydrobenzo[d]oxazol-2-yl)propanoic acid]
- CC50 (HepG2.2.15 cells): 12.6 µM
- EC50 (HBV): 0.0908 µM

Structure (SMILES): CCOC(=O)C1=C(C2CCc3nn(CCCC(=O)O)cc3C2)NC(c2nccs2)=NC1c1ccc(F)c(F)c1Cl (single isomer, unassigned) [Compound 50c, 4-(5-(6-(2-Chloro-3,4-difluorophenyl)-5-(ethoxycarbonyl)-2-(thiazol-2-yl)-3,6-dihydropyrimidin-4-yl)-4,5,6,7-tetrahydro-2H-indazol-2-yl)butanoic acid]
- CC50 (HepG2.2.15 cells): 11.9 µM
- EC50 (HBV): < 0.0046 µM

Structure (SMILES): COC(=O)C1=C(C2CCc3nn(CCC(=O)O)cc3C2)NC(c2nccs2)=NC1c1ccc(F)c(F)c1Br (single isomer, unassigned) [Compound 46d, 3-(5-(6-(2-Bromo-3,4-difluorophenyl)-5-(methoxycarbonyl)-2-(thiazol-2-yl)-3,6-dihydropyrimidin-4-yl)-4,5,6,7-tetrahydro-2H-indazol-2-yl)propanoic acid]
- CC50 (HepG2.2.15 cells): 10.7 µM
- EC50 (HBV): 0.0136 µM
